Converted amounts (≈) assume the structure as drawn. Like-named read-outs stand apart in the source and are kept apart here.
Experiments:
[1] = target: T1, human TRPA1 (hTRPA1) (Homo sapiens, UniProt O75762); test: Inhibition of human TRPA1, whole-cell patch clamp; type: cell-based; conditions: antagonist effect, whole cell patch configuration; read-out: hTRPA1
T1 construct: expressed in transfected cells
Method: Data for TRPA1 inhibition was obtained by this method for the indicated compounds of Formula (I), with the relevant data included in Table 14 below. All currents were recorded in whole-cell configuration using EPC-9 and EPC-10 amplifiers and Patchmaster software (HEKA). […] The standard pipette solution consisted of 140 mM CsAsp, 10 mM EGTA, 10 mM HEPES, […], 1.91 mM CaCl2, and up to 0.3 mM Na2GTP, with pH adjusted to 7.2 with CsOH. In addition, a solution containing 145 mM CsCl, 10 mM HEPES, 10 mM EGTA, and up to 0.3 mM Na2GTP and 1 mM MgCl2 (pH 7.2 adjusted with CsOH) can be used. The standard bath solution contained 150 mM NaCl, 10 mM HEPES, 10 mM glucose, 4.5 mM KCl, 1 mM EGTA, 3 mM MgCl2, with pH adjusted to 7.4 with NaOH. In some instances, 2 mM CaCl2 was added in place of EGTA and the concentration of MgCl2 was reduced to 1 mM.
Data were collected either by continuous recordings at −60 mV or by applying voltage ramps from a holding potential of 0 mV every 4 s. Continuous recordings were collected at 400 Hz and digitally filtered off-line at 10 Hz for presentation. Voltage ramps were applied from −100 mV to 100 mV over the course of 400 ms, and data were collected at 10 kHz and filtered at […]. Inward and outward currents were analyzed from the ramps at −80 and 80 mV, respectively. Liquid junction potential correction was not used.
Solutions were switched using a gravity-fed continuous focal perfusion system. To achieve rapid temperature changes, two temperature control, and perfusion systems were employed simultaneously. For temperatures greater than or equal to 22° C., a Warner Instruments bipolar temperature controller (TC-344B) and inline heater (SHM-8) were used. […] Temperatures were confirmed using a thermistor (Warner Instruments, TA-29), with temperatures at the recorded cell estimated to be within +/−2° C. of those reported.
The antagonist effects of compounds of Formula (I) against human TRPA1 (“hTRPA1”) in a whole cell patch configuration were evaluated using the in vitro assay protocol described above.

[2] = Metabolic stability in liver microsomes; type: in vitro ADME; conditions: rat liver microsomes; for half-life at 1 μM: both sexes, read-out: Half-Life Both sexes
Method: (§1) Metabolic stability of the compounds of Formula (I) was determined by standard liver microsome assays. Briefly, metabolic stability was tested by adding the compound to be tested dissolved in DMSO to human, dog, or rat liver microsomes. Assays were run with a starting concentration of 1 μM test compound. The reaction was initiated by addition of nicotinamide adenine dinucleotide phosphate[…] (NADPH) regeneration components at 37° C., at which time an aliquot was immediately quenched in an ice-cold acetonitrile/methanol/water solution. Reaction mixture was incubated at 37° C. on a shaker, and additional aliquots were taken at 7, 15, 30 and 60 minutes. Following quench and centrifugation, samples were analyzed on HPLC/MS/MS.

[3] = Kinetic solubility in buffered solutions; type: physicochemical; conditions: aqueous buffer, kinetic from dmso stock, 24 hours ambient
Method: The solubilities of the compounds of Formula (I) were tested using the procedure outlined in Kerns, E. H., J Pharm Sci (2001) 90:1838-1858, incorporated herein by reference and described below. Data for solubility was obtained by this method for compounds of Formula (I) and included in Table 3. The chromatographic data was performed by HPLC using an Xbridge Shield RP18 column with the following column dimensions: 4.6×30 mm, 3.5 μm. The mobile phase consisted of deionized water (MPA) with trifluoroacetic acid added in at 0.1% (v/v) (MPC) and HPLC-grade acetonitrile (MPB). The mobile phase flow rate was 2.5 mL/min with the column and sampling operating at ambient temperature. UV detection was set to 280 nm.
Samples for analysis of the compounds of Formula (I) were prepared at a % v/v=1/19 (i.e., 10 μL of the stock solution into 190 μL of buffer) by spiking stock solutions of the compounds of Formula (I) into buffered solutions. Three buffered solution systems were prepared: pH 4.0 prepared from 50 mM sodium acetate in a 5% dextrose in water solution, pH 7.4 prepared from 75 mM sodium phosphate in a 1:1 ratio of sterilized water for injection to a 5% dextrose in water solution, and pH 9.0 prepared from 50 mM sodium bicarbonate in a 1:2 ratio of sterilized water for injection to a 5% dextrose in water solution. The samples were incubated on a microplate shaker at 300 rpm for 24 hours at ambient temperature. Following incubation, the samples were centrifuged for five minutes at 13 k rpm at ambient temperature. The resulting supernantant was extracted for HPLC analysis.

[4] = Metabolic stability in liver microsomes; type: in vitro ADME, human; conditions: 1 μM test compound; for half-life at 1 μM: human, liver microsomes, 37° C.
Method: as §1

[5] = sodium acetate buffer, pH 4.0, 50 mM sodium acetate, read-out: pH 4.0 solubility
[6] = sodium bicarbonate buffer, pH 9.0, 50 mM sodium bicarbonate, read-out: pH 9.0 solubility
[7] = sodium phosphate buffer, pH 7.4, 75 mM sodium phosphate, read-out: pH 7.4 solubility

T1 sequence (O75762 whole entry): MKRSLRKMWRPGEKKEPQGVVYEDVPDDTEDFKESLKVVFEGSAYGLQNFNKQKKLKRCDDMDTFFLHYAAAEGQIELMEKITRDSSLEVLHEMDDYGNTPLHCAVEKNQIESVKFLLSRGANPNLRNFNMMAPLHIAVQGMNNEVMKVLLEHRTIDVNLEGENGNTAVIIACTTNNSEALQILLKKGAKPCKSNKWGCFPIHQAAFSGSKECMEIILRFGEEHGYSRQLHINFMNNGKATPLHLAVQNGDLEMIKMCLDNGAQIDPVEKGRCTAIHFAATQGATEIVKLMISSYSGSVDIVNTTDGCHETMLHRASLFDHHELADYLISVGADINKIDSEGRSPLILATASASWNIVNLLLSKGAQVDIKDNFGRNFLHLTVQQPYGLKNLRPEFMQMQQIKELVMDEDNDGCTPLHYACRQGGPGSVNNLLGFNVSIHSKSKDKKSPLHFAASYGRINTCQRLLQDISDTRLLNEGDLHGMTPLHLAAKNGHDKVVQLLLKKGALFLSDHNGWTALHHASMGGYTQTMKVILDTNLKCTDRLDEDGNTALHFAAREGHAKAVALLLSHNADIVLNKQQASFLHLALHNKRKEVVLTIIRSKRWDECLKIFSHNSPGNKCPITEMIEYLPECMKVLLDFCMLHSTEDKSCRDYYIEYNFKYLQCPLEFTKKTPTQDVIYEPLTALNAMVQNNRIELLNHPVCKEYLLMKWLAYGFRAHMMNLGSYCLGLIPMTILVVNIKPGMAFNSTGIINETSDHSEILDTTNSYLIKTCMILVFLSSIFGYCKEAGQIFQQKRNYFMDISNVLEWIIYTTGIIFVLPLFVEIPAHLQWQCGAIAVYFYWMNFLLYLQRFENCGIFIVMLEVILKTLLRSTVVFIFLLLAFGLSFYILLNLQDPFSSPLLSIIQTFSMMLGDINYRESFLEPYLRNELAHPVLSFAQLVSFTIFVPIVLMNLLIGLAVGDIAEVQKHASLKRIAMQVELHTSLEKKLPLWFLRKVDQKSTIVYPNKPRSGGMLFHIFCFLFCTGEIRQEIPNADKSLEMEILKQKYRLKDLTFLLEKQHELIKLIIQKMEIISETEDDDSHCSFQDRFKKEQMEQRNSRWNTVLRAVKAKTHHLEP

IC50 [1] [µM]	Hepatic Clearance [2] [L/h/kg]	solubility kinetic at 24 h [3, 5] [mg/mL]	solubility kinetic at 24 h [3, 6] [mg/mL]	solubility kinetic at 24 h [3, 7] [mg/mL]	Human Liver Microsomes Hepatic Clearance [4] [L/h/kg]	half-life at 1 μM [4] [min]	half-life at 1 μM [2] [min]	SMILES
0.436								C[C@H]1CCCN1c1ncc(-c2nccc(NC(=O)Cn3cnc4c3c(=O)[nH]c(=O)n4C)n2)cn1 [Compound 24, (S)-2-(3-methyl-2,6-dioxo-2,3-dihydro-1H-purin-7(6H)-yl)-N-(2′-(2-methylpyrrolidin-1-yl)-[2,5′-bipyrimidin]-4-yl)acetamide]
0.0412	1.32	0.011 (≈ 22.4 µM)	0.009 (≈ 18.3 µM)	0.012 (≈ 24.5 µM)	0.96	8		C[C@H]1CCCCN1c1ncc(-c2nccc(NC(=O)Cn3cnc4c3c(=O)n(C)c(=O)n4C)n2)cn1 [Compound 17, (S)-2-(1,3-dimethyl-2,6-dioxo-2,3-dihydro-1H-purin-7(6H)-yl)-N-(2′-(2-methylpiperidin-1-yl)-2,5′-bipyrimidin-4-yl)acetamide]
0.255								Cn1c(=O)c2c(ncn2CC(=O)Nc2ccnc(-c3cnc(N4CCC[C@H]4C(F)(F)F)nc3)n2)n(C)c1=O [Compound 27, (S)-2-(1,3-dimethyl-2,6-dioxo-2,3-dihydro-1H-purin-7(6H)-yl)-N-(2′-(2-(trifluoromethyl)pyrrolidin-1-yl)-[2,5′-bipyrimidin]-4-yl)acetamide]
0.0607		0.02 (≈ 39.6 µM)	0.014 (≈ 27.7 µM)	0.031 (≈ 61.4 µM)	1.08	4		CC(C(=O)Nc1ccnc(-c2cnc(N3CCCC[C@@H]3C)nc2)n1)n1cnc2c1c(=O)n(C)c(=O)n2C (stereo partly drawn) [Compound 23, 2-(1,3-dimethyl-2,6-dioxo-2,3-dihydro-1H-purin-7(6H)-yl)-N-(2′-((S)-2-methylpiperidin-1-yl)-2,5′-bipyrimidin-4-yl)propanamide]
0.0935								Cn1c(=O)c2c(ncn2CC(=O)Nc2ccnc(-c3cnc(N4CC5CC5C4)nc3)n2)n(C)c1=O (stereo not shown) [Compound 10, N-(2′-(3-azabicyclo[3.1.0]hexan-3-yl)-[2,5′-bipyrimidin]-4-yl)-2-(1,3-dimethyl-2,6-dioxo-2,3-dihydro-1H-purin-7(6H)-yl)acetamide]
0.124								Cn1c(=O)c2c(ncn2CC(=O)Nc2ccnc(-c3cnc(N4CCC(C(F)(F)F)C4)nc3)n2)n(C)c1=O (stereo not shown) [Compound 11, 2-(1,3-dimethyl-2,6-dioxo-2,3-dihydro-1H-purin-7(6H)-yl)-N-(2′-(3-(trifluoromethyl)pyrrolidin-1-yl)-[2,5′ bipyrimidin]-4-yl)acetamide]
0.0948								C[C@@H](C(=O)Nc1ccnc(-c2cnc(N3CCC(F)(F)CC3)nc2)n1)n1cnc2c1c(=O)n(C)c(=O)n2C [Compound 14, (S)—N-(2′(4,4-difluoropiperidin-1-yl)-2,5′-bipyrimidin-4-yl)-2-(1,3-dimethyl-2,6-dioxo-2,3-dihydro-1H-purin-7(6H)-yl)propanamide]
> 3.2		0.05 (≈ 102 µM)	0.07 (≈ 143 µM)	0.089 (≈ 181 µM)	0.72	26		C[C@H](C(=O)Nc1ccnc(-c2cnc(N3CCC[C@@H]3C)nc2)n1)n1cnc2c1c(=O)n(C)c(=O)n2C [Compound 22, (R)-2-(1,3-dimethyl-2,6-dioxo-2,3-dihydro-1H-purin-7(6H)-yl)-N-(2′-((S)-2-methylpyrrolidin-1-yl)-[2,5′-bipyrimidin]-4-yl)propanamide]
0.387								Cn1c(=O)c2c(ncn2CC(=O)Nc2ccnc(-c3cnc(N4CC(C(F)(F)F)C4)nc3)n2)n(C)c1=O [Compound 12, 2-(1,3-dimethyl-2,6-dioxo-1,2,3,6-tetrahydropurin-7-yl)-N-(2-(2-(3-(trifluoromethyl)azetidin-1-yl)pyrimidin-5-yl)pyrimidin-4-yl)acetamide]
0.0719						38.4	115	Cn1c(=O)c2c(ncn2CC(=O)Nc2ccnc(-c3cnc(N4CCC(F)(F)CC4)nc3)n2)n(C)c1=O [Compound 8, N-(2′-(4,4-difluoropiperidin-1-yl)-[2,5′-bipyrimidin]-4-yl)-2-(1,3-dimethyl-2,6-dioxo-2,3-dihydro-1H-purin-7(6H)-yl)acetamide]
0.107		0.045 (≈ 93.8 µM)	0.011 (≈ 22.9 µM)	0.029 (≈ 60.5 µM)	0.48	43		[2H]C([2H])([2H])n1c(=O)n(C)c(=O)c2c1ncn2CC(=O)Nc1ccnc(-c2cnc(N3CCC[C@@H]3C)nc2)n1 [Compound 25, N-{2-[2-((2S)-2-methylpyrrolidinyl)pyrimidin-5-yl]pyrimidin-4-yl}-2-(1-methyl-3-methyl-d3-2,6-dioxo(1,3,7-trihydropurin-7-yl))acetamide]
0.0104	1.44	0.051 (≈ 104 µM)	0.017 (≈ 34.7 µM)	0.041 (≈ 83.6 µM)	0.9	12	21.8	Cn1c(=O)c2c(ncn2CC(=O)Nc2ccnc(-c3cnc(N4CCCC4(C)C)nc3)n2)n(C)c1=O [Compound 18, 2-(1,3-dimethyl-2,6-dioxo-2,3-dihydro-1H-purin-7(6H)-yl)-N-(2′-(2,2-dimethylpyrrolidin-1-yl)-2,5′-bipyrimidin-4-yl)acetamide]
0.462								C[C@@H](C(=O)Nc1ccnc(-c2cnc(N3CC(F)(F)C3)nc2)n1)n1cnc2c1c(=O)n(C)c(=O)n2C [Compound 9, (S)—N-(2′-(3,3-difluoroazetidin-1-yl)-2,5′-bipyrimidin-4-yl)-2-(1,3-dimethyl-2,6-dioxo-2,3-dihydro-1H-purin-7(6H)-yl)propanamide]
0.922								Cn1c(=O)c2c(ncn2CC(=O)Nc2ccnc(-c3cnc(N4CC(F)(F)C4)nc3)n2)n(C)c1=O [Compound 7, N-(2′-(3,3-difluoroazetidin-1-yl)-[2,5′-bipyrimidin]-4-yl)-2-(1,3-dimethyl-2,6-dioxo-2,3-dihydro-1H-purin-7(6H)-yl)acetamide]
2.29								C[C@H](C(=O)Nc1ccnc(-c2cnc(N3CCC[C@H]3C(F)(F)F)nc2)n1)n1cnc2c1c(=O)n(C)c(=O)n2C [Compound 3, (R)-2-(1,3-dimethyl-2,6-dioxo-2,3-dihydro-1H-purin-7(6H)-yl)-N-(2′-((S)-2-(trifluoromethyl)pyrrolidin-1-yl)-[2,5′-bipyrimidin]-4-yl)propanamide]
0.0659								C[C@H](C(=O)Nc1ccnc(-c2cnc(N3CCC[C@@H]3C(F)(F)F)nc2)n1)n1cnc2c1c(=O)n(C)c(=O)n2C [Compound 28]
